Test results from patent US8017775B2, “1-2-dihydroquinoline derivative having glucocorticoid receptor binding activity” (Santen Pharmaceutical Co., Ltd., priority 2005, dated 2011).

Molecular target: T1, Recombinant human GR (Homo sapiens, UniProt P04150)
T1 construct: purchased Invitrogen P2816
T1 sequence (P04150 1-777): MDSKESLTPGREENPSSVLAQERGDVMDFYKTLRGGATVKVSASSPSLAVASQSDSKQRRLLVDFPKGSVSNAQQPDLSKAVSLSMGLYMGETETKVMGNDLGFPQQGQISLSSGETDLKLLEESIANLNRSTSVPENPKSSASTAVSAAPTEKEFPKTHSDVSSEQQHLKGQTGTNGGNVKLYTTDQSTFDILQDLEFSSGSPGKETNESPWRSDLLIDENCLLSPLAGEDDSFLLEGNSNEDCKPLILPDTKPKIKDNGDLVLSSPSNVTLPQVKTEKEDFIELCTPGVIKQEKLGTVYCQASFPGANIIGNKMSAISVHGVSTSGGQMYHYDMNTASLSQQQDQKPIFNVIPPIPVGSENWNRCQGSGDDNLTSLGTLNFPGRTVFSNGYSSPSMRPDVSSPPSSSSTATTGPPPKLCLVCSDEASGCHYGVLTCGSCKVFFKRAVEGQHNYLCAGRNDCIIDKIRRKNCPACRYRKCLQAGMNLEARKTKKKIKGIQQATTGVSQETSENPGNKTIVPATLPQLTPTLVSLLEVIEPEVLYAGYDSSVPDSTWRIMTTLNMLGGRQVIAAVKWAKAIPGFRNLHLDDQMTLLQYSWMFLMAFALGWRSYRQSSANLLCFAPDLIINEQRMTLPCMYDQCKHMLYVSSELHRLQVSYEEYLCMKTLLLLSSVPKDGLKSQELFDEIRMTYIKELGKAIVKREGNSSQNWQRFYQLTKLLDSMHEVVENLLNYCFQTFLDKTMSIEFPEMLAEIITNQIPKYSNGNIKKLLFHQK
Test: GR competitor assay by fluorescence polarization (GR binding ratio)
Conditions: positive control 2 mM dexamethasone, a GR binding ratio of 100% or more is indicated by 100%
Description: 1. Evaluation Test for Binding Activity to Glucocorticoid Receptor (hereinafter referred to as “GR”)
In order to evaluate a binding activity to GR, a receptor competitor assay was carried out by a fluorescence polarization method. In the assay, a GR competitor assay kit (manufactured by Invitrogen, cat No. P2816) was used, and a procedure was carried out according to the protocol attached to the kit. Hereinafter, the specific method will be described.
GR screening buffer: A buffer containing 10 mM potassium phosphate (pH 7.4), 20 mM sodium molybdate (Na2MoO4), 0.1 mM ethylene diamine tetraacetic acid (EDTA), 5 mM dithiothreitol (DTT), 0.1 mM stabilizing peptide and 2% dimethylsulfoxide was prepared.
4×GS1 solution: Fluormone™ GS1, which is a fluorescent glucocorticoid ligand, was diluted with GR screening buffer, whereby a 4 nM solution was prepared.
4×GR solution: Recombinant human GR was diluted with GR screening buffer, whereby a 16 nM solution was prepared.
After a test compound was dissolved in dimethylsulfoxide, the resulting solution was diluted with GR screening buffer, whereby a 20 μM test compound solution was prepared.
1) The test compound solution was added in an amount of 25 μL or 10 μL into each well of a 96-well or 384-well plate, and then, 4×GS1 solution and 4×GR solution were added in an amount of 12.5 μL or 5 μL into each well, respectively.
2) The plate was incubated in a dark place at room temperature for 2 to 4 hours.
3) By using a multimode plate reader, Analyst™ HT (manufactured by LJL Biosystems), fluorescence polarization of each well was measured. As the blank, a well containing GR screening buffer in place of the test compound and 4×GS1 solution was used.
4) The same procedure as that in the above 1) to 3) was carried out except that GR screening buffer was used in place of the test compound solution, and the obtained result was taken as the negative control.
5) The same procedure as that in the above 1) to 3) was carried out except that 2 mM dexamethasone was used in place of the test compound solution, and the obtained result was taken as the positive control.
A GR binding ratio (%) was calculated from the following equation.
GR binding ratio (%)=100×[1−(fluorescence polarization of test compound solution−fluorescence polarization of positive control solution)/(fluorescence polarization of negative control solution−fluorescence polarization of positive control solution)]

SMILES	GR Binding ratio (%)
COc1ccccc1NCc1c(-c2cc(F)ccc2OC)ccc2c1C(C)=CC(C)(C)N2 [Compound 6-75, 6-(5-Fluoro-2-methoxyphenyl)-5-(2-methoxyphenylaminomethyl)-2,2,4-trimethyl-1,2-dihydroquinoline]	≥ 100%
COc1ccccc1NCc1c(-c2cc(C)ccc2OC)ccc2c1C(C)=CC(C)(C)N2 [Compound 6-76, 6-(2-Methoxy-5-methylphenyl)-5-(2-methoxyphenylaminomethyl)-2,2,4-trimethyl-1,2-dihydroquinoline]	≥ 100%
COc1cc(F)ccc1-c1ccc2c(c1CNc1ccccc1CCO)C(C)=CC(C)(C)N2 [Compound 6-77, 6-(4-Fluoro-2-methoxyphenyl)-5-[2-(2-hydroxyethyl)phenylaminomethyl)-2,2,4-trimethyl-1,2-dihydroquinoline]	≥ 100%
COc1ccc(F)cc1-c1ccc2c(c1CNc1cc(F)ccc1C)C(C)=CC(C)(C)N2 [Compound 6-78, 6-(5-Fluoro-2-methoxyphenyl)-5-(5-fluoro-2-methylphenylaminomethyl)-2,2,4-trimethyl-1,2-dihydroquinoline]	≥ 100%
COc1ccc(C(F)(F)F)cc1-c1ccc2c(c1CNc1cc(F)ccc1C)C(C)=CC(C)(C)N2 [Compound 6-79, 5-(5-Fluoro-2-methylphenylaminomethyl)-6-(2-methoxy-5-trifluoromethylphenyl)-2,2,4-trimethyl-1,2-dihydroquinoline]	≥ 100%
COc1cc(F)ccc1-c1ccc2c(c1COC(=O)c1sccc1Cl)C(C)=CC(C)(C)N2 [Compound 12-17, 5-[(3-Chlorothiophen-2-yl)carbonyloxymethyl]-6-(4-fluoro-2-methoxyphenyl)-2,2,4-trimethyl-1,2-dihydroquinoline]	≥ 100%
COc1cc(F)ccc1-c1ccc2c(c1COC(=O)c1ccc(C)s1)C(C)=CC(C)(C)N2 [Compound 12-19, 6-(4-Fluoro-2-methoxyphenyl)-5-[(5-methylthiophen-2-yl)carbonyloxymethyl]-2,2,4-trimethyl-1,2-dihydroquinoline]	≥ 100%
CCc1ccc(C(=O)OCc2c(-c3ccc(F)cc3OC)ccc3c2C(C)=CC(C)(C)N3)s1 [Compound 12-20, 5-[(5-Ethylthiophen-2-yl)carbonyloxymethyl]-6-(4-fluoro-2-methoxyphenyl)-2,2,4-trimethyl-1,2-dihydroquinoline]	≥ 100%
COc1cc(F)ccc1-c1ccc2c(c1COC(=O)c1cc(C)cs1)C(C)=CC(C)(C)N2 [Compound 12-21, 6-(4-Fluoro-2-methoxyphenyl)-5-[(4-methylthiophen-2-yl)carbonyloxymethyl]-2,2,4-trimethyl-1,2-dihydroquinoline]	≥ 100%
COc1cc(F)ccc1-c1ccc2c(c1COC(=O)c1ccc(Cl)s1)C(C)=CC(C)(C)N2 [Compound 12-22, 5-[(5-Chlorothiophen-2-yl)carbonyloxymethyl]-6-(4-fluoro-2-methoxyphenyl)-2,2,4-trimethyl-1,2-dihydroquinoline]	≥ 100%
COc1cc(F)ccc1-c1ccc2c(c1COC(=O)c1ccc(Br)s1)C(C)=CC(C)(C)N2 [Compound 12-25, 5-[(5-Bromothiophen-2-yl)carbonyloxymethyl]-6-(4-fluoro-2-methoxyphenyl)-2,2,4-trimethyl-1,2-dihydroquinoline]	≥ 100%
COc1ccc(C(=O)OCc2c(-c3ccc(F)cc3OC)ccc3c2C(C)=CC(C)(C)N3)s1 [Compound 12-33, 6-(4-Fluoro-2-methoxyphenyl)-5-[(5-methoxythiophen-2-yl)carbonyloxymethyl]-2,2,4-trimethyl-1,2-dihydroquinoline]	≥ 100%
COc1cc(F)ccc1-c1ccc2c(c1COC(=O)c1ccc3c(c1)OCO3)C(C)=CC(C)(C)N2 [Compound 12-42, 5-[(1,3-Benzodioxol-5-yl)carbonyloxymethyl]-6-(4-fluoro-2-methoxyphenyl)-2,2,4-trimethyl-1,2-dihydroquinoline]	99%
COc1ccc(C(=O)OCc2c(-c3cc(F)ccc3OC)ccc3c2C(C)=CC(C)(C)N3)cc1 [Compound 12-75, 6-(5-Fluoro-2-methoxyphenyl)-5-(4-metoxybenzoyloxymethyl)-2,2,4-trimethyl-1,2-dihydroquinoline]	≥ 100%

Further lines, results first:

GR Binding ratio (%)	SMILES
≥ 100%	COc1cc(F)c(F)cc1-c1ccc2c(c1COC(=O)c1cccs1)C(C)=CC(C)(C)N2 [Compound 12-53, 6-(4,5-Difluoro-2-methoxyphenyl)-5-[(thiophen-2-yl)carbonyloxymethyl]-2,2,4-trimethyl-1,2-dihydroquinoline]
≥ 100%	COc1cc(F)c(F)cc1-c1ccc2c(c1COC(=O)c1ccc(C)s1)C(C)=CC(C)(C)N2 [Compound 12-54, 6-(4,5-Difluoro-2-methoxyphenyl)-5-[(5-methylthiophen-2-yl)carbonyloxymethyl]-2,2,4-trimethyl-1,2-dihydroquinoline]
≥ 100%	CCOc1cc(F)ccc1-c1ccc2c(c1COC(=O)c1ccc(C)s1)C(C)=CC(C)(C)N2 [Compound 12-58, 6-(2-Ethoxy-4-fluorophenyl)-5-[(5-methylthiophen-2-yl)carbonyloxymethyl]-2,2,4-trimethyl-1,2-dihydroquinoline]
≥ 100%	COc1ccc(C)cc1-c1ccc2c(c1COC(=O)c1ccc(C)s1)C(C)=CC(C)(C)N2 [Compound 12-67, 6-(2-Methoxy-5-methylphenyl)-5-(5-methylthiophen-2-yl-carbonyloxymethyl)-2,2,4-trimethyl-1,2-dihydroquinoline]
≥ 100%	COc1ccc(Cl)cc1-c1ccc2c(c1COC(=O)c1ccc(C)s1)C(C)=CC(C)(C)N2 [Compound 12-69, 6-(5-Chloro-2-methoxyphenyl)-5-(5-methylthiophen-2-ylcarbonyloxymethyl)-2,2,4-trimethyl-1,2-dihydroquinoline]
≥ 100%	COc1ccc(C(F)(F)F)cc1-c1ccc2c(c1COC(=O)c1ccc(C)s1)C(C)=CC(C)(C)N2 [Compound 12-73, 6-(2-Methoxy-5-trifluoromethylphenyl)-5-(5-methylthiophen-2-ylcarbonyloxymethyl)-2,2,4-trimethyl-1,2-dihydroquinoline]
≥ 100%	COc1ccc(F)cc1-c1ccc2c(c1COC(=O)c1ccc(C)s1)C(C)=CC(C)(C)N2 [Compound 12-76, 6-(5-Fluoro-2-methoxyphenyl)-5-(5-methylthiophen-2-ylcarbonyloxymethyl)-2,2,4-trimethyl-1,2-dihydroquinoline]
≥ 100%	COC(=O)Cc1ccccc1OCc1c(-c2ccc(F)cc2OC)ccc2c1C(C)=CC(C)(C)N2 [Compound 14-1, 6-(4-Fluoro-2-methoxyphenyl)-5-(2-methoxycarbonylmethylphenoxymethyl)-2,2,4-trimethyl-1,2-dihydroquinoline]
≥ 100%	COc1ccc(C)cc1-c1ccc2c(c1COc1cc(F)ccc1C)C(C)=CC(C)(C)N2 [Compound 14-11, 5-(5-Fluoro-2-methylphenoxymethyl)-6-(2-methoxy-5-methylphenyl)-2,2,4-trimethyl-1,2-dihydroquinoline]
≥ 100%	COc1ccc(Cl)cc1-c1ccc2c(c1COc1cc([N+](=O)[O-])ccc1C)C(C)=CC(C)(C)N2 [Compound 14-12, 6-(5-Chloro-2-methoxyphenyl)-5-(2-methyl-5-nitrophenoxymethyl)-2,2,4-trimethyl-1,2-dihydroquinoline]
